From patent publication US9339503B2, “Tetrahydro-quinazolinone derivatives as TANK and PARP inhibitors” (MERCK PATENT GMBH, priority 2012, dated 2016) come the findings set out here.

Each structure is given as a SMILES string. Where only a bound is given, the exact number is not on record here.

Test [1] deals with tankyrase 1/2. The experiment in a line: Measurement of cellular inhibition of tankyrase (Axin2 level, Luminex based assay, DLD1 cells). The note with it: 24 hours, increase of Axin2 level, read-out: EC50 tankyrase 1/2 (cell assay). Here is the method:
Measurement of Cellular Inhibition of Tankyrase
Since Tankyrases have been described to modulate cellular level of Axin2 (Huang et al., 2009; Nature) the increase of Axin2 level is used as read-out for determination of cellular inhibition of Tankyrases in a Luminex based assay.
Cells of the colon carcinoma cell line DLD1 are plated in 96 well plates with 1.5×10^4 cells per well. Next day, cells are treated with a serial-dilution of test compound in seven steps as triplicates with a final DMSO concentration of 0.3%. After 24 hours, cells are lysed in lysis buffer (20 mM Tris/HCl pH 8.0, 150 mM NaCl, 1% NP40, 10% Glycerol) and lysates are cleared by centrifugation through a 96 well filter plate (0.65 μm). Axin2 protein is isolated from cell lysates by incubation with a monoclonal anti-Axin2 antibody (R&D Systems #MAB6078) that is bound to fluorescent carboxybeads. Then, bound Axin2 is specifically detected with a polyclonal anti-Axin2 antibody (Cell Signaling #2151) and an appropriate PE-fluorescent secondary antibody. The amount of isolated Axin2 protein is determined in a Luminex^200 machine (Luminex Corporation) according to the manufacturer's instruction by counting 100 events per well. […] For analysis, the obtained data were normalized against the untreated solvent control and fitted for determination of the EC50 values using the Assay Explorer software (Accelrys).

Test [2] deals with T1, GST-tagged Tankyrase-1 (1023-1327 aa) (Homo sapiens, UniProt O95271).
T1 construct: GST-tagged Tankyrase-1 (1023-1327 aa)
T1 sequence (O95271 1023-1327): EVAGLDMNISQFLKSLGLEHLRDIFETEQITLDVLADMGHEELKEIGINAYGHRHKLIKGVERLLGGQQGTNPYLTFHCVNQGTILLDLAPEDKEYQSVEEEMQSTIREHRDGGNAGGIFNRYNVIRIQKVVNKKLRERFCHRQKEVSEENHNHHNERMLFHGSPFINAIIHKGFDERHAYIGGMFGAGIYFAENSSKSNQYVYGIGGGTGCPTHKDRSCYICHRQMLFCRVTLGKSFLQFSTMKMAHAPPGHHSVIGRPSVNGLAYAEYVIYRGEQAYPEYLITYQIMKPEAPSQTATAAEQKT
Put plainly: Tankyrase 1 autoparsylation assay (HTRF enzyme assay). The test is classed as biochemical. Here is the method: (§1) The autoparsylation assay was run in two steps: the enzymatic reaction in which GST-tagged Tankyrase-1, resp Tankyrase-2 transferred biotinylated ADP-ribose to itself from biotinylated NAD as co-substrate and the detection reaction where a time resolved FRET between cryptate labelled anti-GST bound to the GST tag of the enzyme and Xlent® labelled-streptavidin bound the biotin-parsylation residue was analysed. The autoparsylation activity was detectable directly via the increase in HTRF signal.
(§2) The autoparsylation assay was performed as 384-well HTRF® (Cisbio, Codolet, France) assay format in Greiner low volume nb 384-well microtiter plates and was used for high throughput screen. 250 nM GST-tagged Tankyrase-1 (1023-1327 aa), respectively about 250 nM GST-tagged Tankyrase-2 (873-1166 aa) and 5 μM bio-NAD (Biolog, Life science Inst., Bremen, Germany) as co-substrate were incubated in a total volume of 5 μl (50 mM HEPES, 4 mM Mg-chloride, 0.05% Pluronic F-68, 1.4 mM DTT, 0.5% DMSO, pH 7.7) in the absence or presence of the test compound (10 dilution concentrations) for 90 min at 30° C. The reaction was stopped by the addition of 1 μl 50 mM EDTA solution. 2 μl of the detection solution (1.6 μM SA-Xlent® (Cisbio, Codolet, France), 7.4 nM Anti-GST-K® (Eu-labelled anti-GST, Cisbio, Codolet, France) in 50 mM HEPES, 800 mM KF, 0.1% BSA, 20 mM EDTA, 0.1% CHAPS, pH 7.0) were added. After 1 h incubation at room temperature the HTRF was measured with an Envision multimode reader (Perkin Elmer LAS Germany GmbH) at excitation wavelength 340 nm (laser mode) and emission wavelengths 615 nm and 665 nm. The ratio of the emission signals was determined. The full value used was the inhibitor-free reaction. The pharmacological zero value used was XAV-939 (Tocris) in a final concentration of 5 μM. The inhibitory values (IC50) were determined using either the program Symyx Assay Explorer® or Condosseo® from GeneData.
(Time-resolved FRET reads energy transfer from a long-lived donor to a nearby acceptor.)

Test [3] deals with T2, GST-tagged Tankyrase-2 (873-1166 aa) (Homo sapiens, UniProt Q9H2K2).
T2 construct: GST-tagged Tankyrase-2 (873-1166 aa)
T2 sequence (Q9H2K2 873-1166): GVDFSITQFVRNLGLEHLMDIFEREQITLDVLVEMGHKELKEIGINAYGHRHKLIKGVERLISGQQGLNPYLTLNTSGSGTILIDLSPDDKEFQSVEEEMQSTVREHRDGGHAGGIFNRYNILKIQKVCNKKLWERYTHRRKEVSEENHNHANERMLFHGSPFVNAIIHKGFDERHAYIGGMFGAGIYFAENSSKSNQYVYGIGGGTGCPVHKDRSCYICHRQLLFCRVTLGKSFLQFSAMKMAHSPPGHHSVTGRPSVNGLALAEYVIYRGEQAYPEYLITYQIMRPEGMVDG
Put plainly: Tankyrase 2 autoparsylation assay (HTRF enzyme assay). The test is classed as biochemical. Here is the method:
as §1, §2

For test [4], the target named is T3, GST-tagged Tnks-1 (1023-1327 aa) (Homo sapiens, UniProt O95271).
T3 construct: GST-tagged Tnks-1 (1023-1327 aa, prepared in-house); made in house
T3 sequence (O95271 1023-1327): as the sequence (O95271 1023-1327) above
The experiment in a line: TNKS 1 activity ELISA (autoparsylation assay). The test is classed as biochemical. As to conditions: read-out: IC50 tankyrase 1 (ELISA assay). As for the experimental part:
(§3) Biochemical Activity Testing of TNKS 1 and 2: Activity ELISA (Autoparsylation Assay)
(§4) For analysis of autoparsylation activity of TNKS 1 and 2 an activity ELISA was performed: In the first step GST tagged TNKS was captured on a Glutathione coated plate. Then the activity assay with biotinylated NAD was performed in the absence/presence of the compounds. During the enzymatic reaction GST tagged TNKS transferred biotinylated ADP-ribose to itself from biotinylated NAD as co-substrate. For the detection streptavidin-HRP conjugate was added that bound to the biotinylated TNKS and was thereby captured to the plates. The amount of biotinylated resp autoparsylated TNKS was detected with a luminescence substrate for HRP. The level of the luminescence signal correlated directly with the amount of autoparsylated TNKS and therefore with activity of TNKS.
(§5) The activity ELISA was performed in 384 well Glutathione coated microtiter plates (Express capture Glutathione coated plate, Biocat, Heidelberg, Germany). The plates were pre-equilibrated with PBS. Then the plates were incubated with 50 μl 20 ng/well GST-tagged Tnks-1 (1023-1327 aa, prepared in-house), respectively GST-tagged Tnks-2 (873-1166 aa, prepared in-house) in assay buffer (50 mM HEPES, 4 mM Mg-chloride, 0.05% Pluronic F-68, 2 mM DTT, pH 7.7) overnight at 4° C. The plates were washed 3 times with PBS-Tween-20. The wells were blocked by incubation at room temperature for 20 minutes with 50 μl blocking buffer (PBS, 0.05% Tween-20, 0.5% BSA). Afterwards the plates were washed 3 times with PBS-Tween-20. The enzymatic reaction was performed in 50 μl reaction solution (50 mM HEPES, 4 mM Mg-chloride, 0.05% Pluronic F-68, 1.4 mM DTT, 0.5% DMSO, pH 7.7) with 10 μM bio-NAD (Biolog, Life science Inst., Bremen, Germany) as co-substrate in the absence or presence of the test compound (10 dilution concentrations) for 1 hour at 30° C. The reaction was stopped by 3 times washing with PBS-Tween-20. For the detection 50 μl of 20 ng/μl Streptavidin, HRP conjugate (MoBiTec, Göttingen, Germany) in PBS/0.05% Tween-20/0.01% BSA were added and the plates were incubated for 30 minutes at room temperature. After three times washing with PBS-Tween-20 50 μl of SuperSignal ELISA Femto Maximum sensitivity substrate solution (ThermoFisherScientific (Pierce), Bonn, Germany) were added. Following a 1 minute incubation at room temperature luminescence signals were measured with an Envision multimode reader (Perkin Elmer LAS Germany GmbH) at 700 nm. The full value used was the inhibitor-free reaction. The pharmacological zero value used was XAV-939 (Tocris) in a final concentration of 5 μM. The inhibitory values (IC50) were determined using either the program Symyx Assay Explorer® or Condosseo® from GeneData.
(In general: ELISA stands for enzyme-linked immunosorbent assay.)

Test [5] has as its target T4, GST-tagged Tnks-2 (873-1166 aa) (Homo sapiens, UniProt Q9H2K2).
T4 construct: GST-tagged Tnks-2 (873-1166 aa, prepared in-house); made in house
The experiment in a line: TNKS 2 activity ELISA (autoparsylation assay). The test is classed as biochemical. The note with it: read-out: IC50 tankyrase 2 (ELISA assay). Here is the method:
as §3, §4, §5

T4 sequence (Q9H2K2 873-1166): as the sequence (Q9H2K2 873-1166) above

By IC50 is commonly meant the midpoint of a concentration-inhibition curve. As to `O=c1[nH]c(N2CCC(C(F)(F)F)CC2)nc2c1CCCC2` [Compound A10, 2-(4-Trifluoromethylpiperidin-1-yl)-5,6,7,8-tetrahydro-3H-quinazolin-4-one], the EC50 in test [1] was 3000 to 50000 nM. Besides, the concentration for half-maximal inhibition (IC50) was 300 to 3000 nM in test [2], 300 to 3000 nM in test [3], < 300 nM in test [4] and < 300 nM in test [5].
Regarding `O=c1[nH]c(N2CCN(c3ccccc3C(F)(F)F)CC2)nc2c1CCCC2` [Compound A56, 2-[4-(2-trifluoromethyl-phenyl)-piperazin-1-yl]-5,6,7,8-tetrahydro-3H-quinazolin-4-one], the EC50 in test [1] is 300 to 3000 nM. Further, the half-inhibitory concentration (IC50) in test [2] was < 300 nM; in test [3], 300 to 3000 nM; in test [4], < 300 nM; in test [5], < 300 nM.
`COc1ccccc1C1CCN(c2nc3c(c(=O)[nH]2)CCCC3)CC1` [Compound A54, 2-[4-(2-methoxy-phenyl)-piperidin-1-yl]-5,6,7,8-tetrahydro-3H-quinazolin-4-one]: the EC50 in test [1] was 300 to 3000 nM. Moreover, the IC50 in test [2] was < 300 nM; in test [3], 300 to 3000 nM; in test [4], < 300 nM; in test [5] it was < 300 nM.
Consider `COc1ccc(C2CCN(c3nc4c(c(=O)[nH]3)CCCC4)CC2)cc1` [Compound A55, 2-[4-(4-methoxy-phenyl)-piperidin-1-yl]-5,6,7,8-tetrahydro-3H-quinazolin-4-one], for which the EC50 in test [1] is 3000 to 50000 nM. In addition, the IC50 was < 300 nM in test [2], 300 to 3000 nM in test [3], < 300 nM in test [4] and < 300 nM in test [5].
`O=c1[nH]c(N2CCN(c3ccc(Cl)cc3)CC2)nc2c1CCCC2` [Compound A8, 2-[4-(4-Chlorophenyl)piperazin-1-yl]-5,6,7,8-tetrahydro-3H-quinazolin-4-one]: the EC50 in test [1] lay within 3000 to 50000 nM. Besides, the IC50 in test [2] was 300 to 3000 nM; in test [3] it was 300 to 3000 nM; in test [4], < 300 nM; in test [5], < 300 nM.
Turning to `O=c1[nH]c(N2CCN(c3ccc(F)cc3Cl)CC2)nc2c1CCCC2` [Compound A39, 2-[4-(2-chloro-4-fluoro-phenyl)piperazin-1-yl]-5,6,7,8-tetrahydro-3H-quinazolin-4-one], the EC50 in test [1] fell in the range of 300 to 3000 nM. Further, the IC50 in test [2] is 300 to 3000 nM; in test [3] it was 300 to 3000 nM; in test [4] it was < 300 nM; in test [5] it was < 300 nM.
Take `O=c1[nH]c(N2CCN(c3cccc(F)c3)CC2)nc2c1CCCC2` [Compound A5, 2-[4-(3-Fluorophenyl)piperazin-1-yl]-5,6,7,8-tetrahydro-3H-quinazolin-4-one]: the EC50 in test [1] lay within 3000 to 50000 nM. For the same compound, the IC50 in test [2] was 300 to 3000 nM; in test [3], 300 to 3000 nM; in test [4], < 300 nM; in test [5], < 300 nM.
With `COc1ccc(N2CCN(c3nc4c(c(=O)[nH]3)CCCC4)CC2)cn1` [Compound A51, 2-[4-(6-methoxy-3-pyridyl)piperazin-1-yl]-5,6,7,8-tetrahydro-3H-quinazolin-4-one], the EC50 in test [1] was in the range of 300 to 3000 nM. In addition, the IC50 in test [2], in test [3], in test [4] and in test [5] was 300 to 3000 nM in each case.
`O=c1[nH]c(N2CCN(c3cccc(Cl)c3)CC2)nc2c1CCCC2` [Compound A11, 2-[4-(3-Chlorophenyl)piperazin-1-yl]-5,6,7,8-tetrahydro-3H-quinazolin-4-one]: the EC50 in test [1] was in the range of 300 to 3000 nM. Moreover, the IC50 was 300 to 3000 nM in test [2], 300 to 3000 nM in test [3], < 300 nM in test [4] and < 300 nM in test [5].
As for `COc1ccc(N2CCN(c3nc4c(c(=O)[nH]3)CCCC4)CC2)c(OC)c1` [Compound A37, 2-[4-(2,4-dimethoxyphenyl)piperazin-1-yl]-5,6,7,8-tetrahydro-3H-quinazolin-4-one], the EC50 in test [1] was in the range of 300 to 3000 nM. In addition, the IC50 was 300 to 3000 nM in test [2], 300 to 3000 nM in test [3], < 300 nM in test [4] and < 300 nM in test [5].
